pIC50: −log10 of the molar value.
Molecular target: JNK3 (Homo sapiens, UniProt P53779)
Assay: JNK3 SPA assay
Type: biochemical
Details: 3.33 μM ATP, GST-c-Jun substrate; read-out: IC50 against JNK3
Method: JNK1, JNK2, JNK3—SPA Assay
JNK1, JNK2, JNK3—SPA Assay • 1. Compound is dissolved in DMSO to a convenient concentration and this is diluted in 10% DMSO to a five times concentrate of the desired starting concentration (frequently 1:100). • 2. 10 μl of 500 mM EDTA is added to alternative wells of the Opti-plate row, which will receive kinase reaction plus DMSO. This creates the negative control. • 3. For the JNK2 and JNK3 assay, compounds are prepared in six 2-fold dilutions with water and each concentration is tested in duplicate. For the JNK1 assay compounds are prepared in four 5-fold dilutions with water which are tested in triplicate. Controls are treated identically. • 4. 20 μl per well of each compound concentration is transferred to an Opti-plate, in duplicate. • 5. 30 μl (JNK2/3 SPA) or 50 μl (JNK1 SPA) of substrate solution (25 mM HEPES pH 7.5, 10 mM magnesium acetate with 3.33 μM ATP (JNK2/3) or 2 μM ATP (JNK1), approximately 7.5 kBq [γ-^33P] ATP, GST-c-Jun, in water) is added to each well. • 6. 50 μl (JNK2/3 SPA) or 30 μl (JNK1 SPA) of kinase solution (JNK in 25 mM HEPES pH 7.5, 10 mM Mg Acetate) is added to each well.
• 7. The plate is incubated for 30 minutes at room temperature. • 8. 100 μl of bead/stop solution is added to each well (5 mg/ml glutathione-PVT-SPA beads, 40 mM ATP in PBS). • 9. Plates are sealed and incubated for 30 minutes at room temperature, centrifuged for 10 minutes at 2500 g and counted. • 10. The IC50 values are calculated as the concentration of the compound being tested at which the phosphorylation of c-Jun is decreased to 50% of the control value.

JNK3, sequence (P53779 whole entry, species assumed): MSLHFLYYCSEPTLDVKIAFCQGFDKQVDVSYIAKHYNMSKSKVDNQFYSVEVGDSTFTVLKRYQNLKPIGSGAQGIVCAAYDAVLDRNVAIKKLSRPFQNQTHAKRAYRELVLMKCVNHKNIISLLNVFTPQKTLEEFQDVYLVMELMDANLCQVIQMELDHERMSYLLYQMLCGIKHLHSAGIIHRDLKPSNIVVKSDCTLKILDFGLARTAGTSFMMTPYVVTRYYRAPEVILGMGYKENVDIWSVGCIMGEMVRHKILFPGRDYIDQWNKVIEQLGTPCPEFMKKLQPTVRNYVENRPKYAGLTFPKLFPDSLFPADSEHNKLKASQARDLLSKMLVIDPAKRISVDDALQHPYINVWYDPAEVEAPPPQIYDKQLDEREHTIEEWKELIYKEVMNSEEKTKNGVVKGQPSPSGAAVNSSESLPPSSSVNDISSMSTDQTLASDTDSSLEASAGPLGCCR

Row | Compound | pIC50
1 | CN(C)[C@H]1CC[C@@H](c2cnc3[nH]cc(-c4cnn(CCN5CCOCC5)c4)c3c2)CC1 [Compound I-59, (1s,4s)-N,N-dimethyl-4-(3-(1-(2-morpholinoethyl)-1H-pyrazol-4-yl)-1H-pyrrolo[2,3-b]pyridin-5-yl)cyclohexanamine] | < 6.30
2 | C1=C(c2cnc3[nH]cc(-c4cnn(CCN5CCOCC5)c4)c3c2)CCC1 [Compound I-62, 5-Cyclopent-1-enyl-3-[1-(2-morpholin-4-yl-ethyl)-1H-pyrazol-4-yl]-1H-pyrrolo[2,3-b]pyridine] | 6.98
3 | Cn1cc(-c2c[nH]c3ncc(C4CCC(=O)CC4)cc23)cn1 [Compound I-20, 4-[3-(1-Methyl-1H-pyrazol-4-yl)-1H-pyrrolo[2,3-b]pyridin-5-yl]-cyclohexanone] | 6.64
4 | Cn1cc(-c2c[nH]c3ncc(C4CCCC4)cc23)cn1 [Compound I-11, 5-cyclopentyl-3-(1-methyl-1H-pyrazol-4-yl)-1H-pyrrolo[2,3-b]pyridine] | 6.88
5 | Mixture of 3-(1-methyl-1H-pyrazol-4-yl)-5-(6-methylcyclohex-1-enyl)-1H-pyrrolo[2,3-b]pyridine and 3-(1-methyl-1H-pyrazol-4-yl)-5-(2-methylcyclohex-1-enyl)-1H-pyrrolo[2,3-b]pyridine [Compound I-30] | 6.77
6 | FC(F)n1cc(-c2c[nH]c3ncc([C@H]4CC[C@H](N5CCOCC5)CC4)cc23)cn1 [Compound I-80, 4-((1r,4r)-4-(3-(1-(difluoromethyl)-1H-pyrazol-4-yl)-1H-pyrrolo[2,3-b]pyridin-5-yl)cyclohexyl)morpholine] | 6.83
7 | Cn1cc(-c2c[nH]c3ncc(C4CCC(F)(F)CC4)cc23)cn1 [Compound I-42, 5-(4,4-difluorocyclohexyl)-3-(1-methyl-1H-pyrazol-4-yl)-1H-pyrrolo[2,3-b]pyridine] | 6.86
8 | CCN(CCO)C1CCC(c2cnc3[nH]cc(-c4cnn(C)c4)c3c2)CC1 (mixture of isomers) [Compound I-131, 2-(ethyl(4-(3-(1-methyl-1H-pyrazol-4-yl)-1H-pyrrolo[2,3-b]pyridin-5-yl)cyclohexyl)amino)ethanol] | 6.60
9 | Cn1cc(-c2c[nH]c3ncc(C4=CCCCC4)cc23)cn1 [Compound I-12, 5-cyclohexenyl-3-(1-methyl-1H-pyrazol-4-yl)-1H-pyrrolo[2,3-b]pyridine] | 6.96
10 | Cc1c(-c2c[nH]c3ncc([C@H]4CC[C@H](N5CCOCC5)CC4)cc23)cnn1C [Compound I-95, 4-((1r,4r)-4-(3-(1,5-dimethyl-1H-pyrazol-4-yl)-1H-pyrrolo[2,3-b]pyridin-5-yl)cyclohexyl)morpholine] | 5.82
11 | CCOCCN(CC)[C@H]1CC[C@@H](c2cnc3[nH]cc(-c4cnn(C)c4)c3c2)CC1 [Compound I-108, (1s,4s)-N-(2-ethoxyethyl)-N-ethyl-4-(3-(1-methyl-1H-pyrazol-4-yl)-1H-pyrrolo[2,3-b]pyridin-5-yl)cyclohexanamine] | 6.69
12 | Cn1cc(-c2c[nH]c3ncc(C4=C[C@H]5O[C@@H]4CC5C(N)=O)cc23)cn1 (mixture of isomers) [Compound I-156, (1R,4R)-5-(3-(1-methyl-1H-pyrazol-4-yl)-1H-pyrrolo[2,3-b]pyridin-5-yl)-7-oxabicyclo[2.2.1]hept-5-ene-2-carboxamide] | 5.85
13 | Cn1cc(-c2c[nH]c3ncc(C4CCC(C(C)(C)C)CC4)cc23)cn1 (mixture of isomers) [Compound I-4, 5-(4-tert-butylcyclohexyl)-3-(1-methyl-1H-pyrazol-4-yl)-1H-pyrrolo[2,3-b]pyridine] | 6.91
14 | CN1CCN([C@H]2CC[C@@H](c3cnc4[nH]cc(-c5cnn(C(F)(F)F)c5)c4c3)CC2)CC1 [Compound I-67, 5-((1s,4s)-4-(4-methylpiperazin-1-yl)cyclohexyl)-3-(1-(trifluoromethyl)-1H-pyrazol-4-yl)-1H-pyrrolo[2,3-b]pyridine] | 6.75
15 | Cn1cc(-c2c[nH]c3ncc([C@H]4CC[C@@H](N5CCCCC5)CC4)cc23)cn1 [Compound I-46, 3-(1-methyl-1H-pyrazol-4-yl)-5-((1s,4s)-4-(piperidin-1-yl)cyclohexyl)-1H-pyrrolo[2,3-b]pyridine] | 6.82

Continued by rising pIC50, values first:

Row | pIC50 | Compound
16 | 5.26 | Cn1cc(-c2c[nH]c3ncc(C4=CC(C)(C)CC(C)(C)C4)cc23)cn1 [Compound I-28, 3-(1-methyl-1H-pyrazol-4-yl)-5-(3,3,5,5-tetramethylcyclohex-1-enyl)-1H-pyrrolo[2,3-b]pyridine]
17 | 5.77 | Cc1c(-c2c[nH]c3ncc([C@H]4CC[C@@H](N5CCOCC5)CC4)cc23)cnn1C [Compound I-96, 4-((1s,4s)-4-(3-(1,5-dimethyl-1H-pyrazol-4-yl)-1H-pyrrolo[2,3-b]pyridin-5-yl)cyclohexyl)morpholine]
18 | 6.10 | Cn1cc(-c2c[nH]c3ncc([C@H]4CC[C@@H](NC5CCOCC5)CC4)cc23)cn1 [Compound I-128, N-((1s,4s)-4-(3-(1-methyl-1H-pyrazol-4-yl)-1H-pyrrolo[2,3-b]pyridin-5-yl)cyclohexyl)tetrahydro-2H-pyran-4-amine]
19 | 6.16 | Cn1cc(-c2c[nH]c3ncc([C@H]4CC[C@@H](NCCO)CC4)cc23)cn1 [Compound I-130, 2-((1s,4s)-4-(3-(1-methyl-1H-pyrazol-4-yl)-1H-pyrrolo[2,3-b]pyridin-5-yl)cyclohexylamino)ethanol]
20 | 6.33 | CCN(C(C)C)C1CCC(c2cnc3[nH]cc(-c4cnn(C)c4)c3c2)CC1 (mixture of isomers) [Compound I-133, N-ethyl-N-isopropyl-4-(3-(1-methyl-1H-pyrazol-4-yl)-1H-pyrrolo[2,3-b]pyridin-5-yl)cyclohexanamine]
21 | 6.47 | FC(F)n1cc(-c2c[nH]c3ncc(C4=CCC(N5CCOCC5)CC4)cc23)cn1 (centres unmarked) [Compound I-5, 3-(1-Difluoromethyl-1H-pyrazol-4-yl)-5-(4-morpholin-4-yl-cyclohex-1-enyl)-1H-pyrrolo[2,3-b]pyridine]
22 | 6.52 | CCN(C)[C@H]1CC[C@H](c2cnc3[nH]cc(-c4cnn(C)c4)c3c2)CC1 [Compound I-109, (1r,4r)-N-ethyl-N-methyl-4-(3-(1-methyl-1H-pyrazol-4-yl)-1H-pyrrolo[2,3-b]pyridin-5-yl)cyclohexanamine]
23 | 6.58 | C[C@H]1COCCN1[C@H]1CC[C@H](c2cnc3[nH]cc(-c4cnn(C)c4)c3c2)CC1 [Compound I-103, (S)-3-methyl-4-((1r,4S)-4-(3-(1-methyl-1H-pyrazol-4-yl)-1H-pyrrolo[2,3-b]pyridin-5-yl)cyclohexyl)morpholine]
24 | 6.59 | COCCN(C)[C@H]1CC[C@@H](c2cnc3[nH]cc(-c4cnn(C)c4)c3c2)CC1 [Compound I-118, (1s,4s)-N-(2-methoxyethyl)-N-methyl-4-(3-(1-methyl-1H-pyrazol-4-yl)-1H-pyrrolo[2,3-b]pyridin-5-yl)cyclohexanamine]
25 | 6.60 | CCN(CC)C1CCC(c2cnc3[nH]cc(-c4cnn(C)c4)c3c2)CC1 (centres unmarked) [Compound I-52, N,N-diethyl-4-(3-(1-methyl-1H-pyrazol-4-yl)-1H-pyrrolo[2,3-b]pyridin-5-yl)cyclohexanamine]
26 | 6.66 | Cn1cc(-c2c[nH]c3ncc(C4=C[C@H]5O[C@@H]4C[C@@H]5C#N)cc23)cn1 [I-155 exo, (1R,2R,4R)-5-(3-(1-methyl-1H-pyrazol-4-yl)-1H-pyrrolo[2,3-b]pyridin-5-yl)-7-oxabicyclo[2.2.1]hept-5-ene-2-carbonitrile]

Source: patent US8178552B2, “7-Azaindole derivatives and their use in the inhibition of c-Jun N-terminal kinase” (Eisai R&D Management Co., Ltd., priority 2008, dated 2012)
